Experimental data reported in ChEMBL document CHEMBL3301472, “MMV Malaria Box HIV and cytotoxicity screening”.

How the values were obtained:
Format in all cases: toxicity, cell-based
[1] = MMV: MTT Cytotoxicity Assay Day 7 pi of Assay #10 (NO washout), U87-CD4-CCR5 cells, % cell death @ 5mM compound; details: human, u87-cd4-ccr5, 5000 µM
[2] = MMV: MTT Cytotoxicity Assay Day 7 pi of Assay #11 (NO washout), U87-CD4-CXCR4 cells, % cell death @ 5mM compound; details: human, u87-cd4-cxcr4, 5000 µM
[3] = MMV: MTT Cytotoxicity Assay Day 3 pi, U87-CD4-CCR5 cells, % cell death @ 5mM compound; details: human, u87-cd4-ccr5, 5000 µM
[4] = MMV: MTT Cytotoxicity Assay Day 7 pi of Assay #7 (compound washed out Day 1 pi), U87-CD4-CXCR4 cells, % cell death @ 5mM compound; details: human, u87-cd4-cxcr4, 5000 µM
[5] = MMV: MTT Cytotoxicity Assay Day 7 pi of Assay #6 (compound washed out Day 1 pi), U87-CD4-CCR5 cells, % cell death @ 5mM compound; details: human, u87-cd4-ccr5, 5000 µM
[6] = MMV: MTT Cytotoxicity Assay Day 3 pi, U87-CD4-CXCR4 cells, % cell death @ 5mM compound; details: human, u87-cd4-cxcr4, 5000 µM

Oc1c(C(Nc2ccccn2)c2cccc(Oc3ccccc3)c2)ccc2cccnc12 (centres undefined)
% Cell Death [1]: 139
% Cell Death [2]: 106
% Cell Death [3]: 113
% Cell Death [4]: 97
% Cell Death [5]: 91
% Cell Death [6]: 101

COc1ccc(CCn2c(=N)c(C(=O)NCc3cccnc3)cc3c(=O)n4cccc(C)c4nc32)cc1
% Cell Death [1]: 4
% Cell Death [2]: 8
% Cell Death [3]: 1
% Cell Death [4]: 35
% Cell Death [5]: 32
% Cell Death [6]: 15

COc1ccc(Br)cc1C1Nc2ccc3ccccc3c2C2=C1C(=O)CC(c1ccccc1)C2 (centres undefined)
% Cell Death [1]: 16
% Cell Death [2]: -37
% Cell Death [3]: 17
% Cell Death [4]: -14
% Cell Death [5]: 30
% Cell Death [6]: 28

CCOC(=O)C1(Cc2ccccc2)CCN(Cc2cccc(OC)c2O)CC1
% Cell Death [1]: 21
% Cell Death [2]: -36
% Cell Death [3]: 0
% Cell Death [4]: -16
% Cell Death [5]: 15
% Cell Death [6]: 29

COc1cc(-c2nc(-c3ccccc3)c(-c3ccccc3)[nH]2)cc(OC)c1O
% Cell Death [1]: 120
% Cell Death [2]: 105
% Cell Death [3]: 104
% Cell Death [4]: 84
% Cell Death [5]: 88
% Cell Death [6]: 52

COc1ccc(CCN2CCC(CN(C)Cc3cnn(-c4ccccc4)c3)CC2)cc1
% Cell Death [1]: 110
% Cell Death [2]: 93
% Cell Death [3]: 33
% Cell Death [4]: 16
% Cell Death [5]: 68
% Cell Death [6]: 53

CC(=O)c1sc(NC(=O)Nc2ccc(C)cc2C)nc1C
% Cell Death [1]: 31
% Cell Death [2]: 20
% Cell Death [3]: -1
% Cell Death [4]: -18
% Cell Death [5]: -30
% Cell Death [6]: 45

CCCCCn1c(=N)n(CC(O)COc2cccc(C)c2)c2ccccc21.Cl (centres undefined)
% Cell Death [1]: 115
% Cell Death [2]: 110
% Cell Death [3]: 99
% Cell Death [4]: 60
% Cell Death [5]: 65
% Cell Death [6]: 71

CCOC(=O)c1c(NC(=O)c2ccccc2)sc2c(O)c(CN(CC)CC)ccc12
% Cell Death [1]: 25
% Cell Death [2]: 25
% Cell Death [3]: -7
% Cell Death [4]: 40
% Cell Death [5]: -2
% Cell Death [6]: -8

CN1C=C(c2ccc3ccccc3n2)C(c2c[nH]c3ccccc23)c2ccccc21 (centres undefined)
% Cell Death [1]: 161
% Cell Death [2]: 0
% Cell Death [3]: 94
% Cell Death [4]: 38
% Cell Death [5]: 13
% Cell Death [6]: 46

Cc1ccc(N2C(=O)C3C(C2=O)C2(c4ccccc4)C(=O)C3(c3ccccc3)C(c3ccccc3)=C2c2ccccc2)cc1 (centres undefined)
% Cell Death [1]: 33
% Cell Death [2]: -35
% Cell Death [3]: -31
% Cell Death [4]: 5
% Cell Death [5]: 0
% Cell Death [6]: 36

Cc1cc(N2CCCC2)nc(Nc2ccc(NC(=O)CCc3ccccc3)cc2)n1
% Cell Death [1]: 0
% Cell Death [2]: -21
% Cell Death [3]: 14
% Cell Death [4]: -12
% Cell Death [5]: 20
% Cell Death [6]: 30

COc1ccc2c(c1)C1(Nc3ccccc3-c3nc4ccccc4n31)C(=O)N2 (centres undefined)
% Cell Death [1]: 29
% Cell Death [2]: 9
% Cell Death [3]: -75
% Cell Death [4]: -24
% Cell Death [5]: -9
% Cell Death [6]: 13

Nc1ccc(-c2nc3cc(Cc4ccc5[nH]c(-c6ccc(N)cc6)nc5c4)ccc3[nH]2)cc1
% Cell Death [1]: 98
% Cell Death [2]: 110
% Cell Death [3]: 88
% Cell Death [4]: 82
% Cell Death [5]: 69
% Cell Death [6]: 57

CCOC(=O)c1c(C)n(-c2ccccc2)c2ccc(OC(=O)c3cc(OC)c(OC)c(OC)c3)cc12
% Cell Death [1]: 12
% Cell Death [2]: -19
% Cell Death [3]: -4
% Cell Death [4]: 2
% Cell Death [5]: -12
% Cell Death [6]: 34

Cc1ccc(Nc2nc(-c3ccccn3)cs2)cc1
% Cell Death [1]: 21
% Cell Death [2]: 12
% Cell Death [3]: 24
% Cell Death [4]: -17
% Cell Death [5]: 20
% Cell Death [6]: 29

COc1ccc(CCNC(=O)c2cc(S(=O)(=O)N3CC(C)CC(C)C3)ccc2Sc2ccc(F)cc2)cc1OC (centres undefined)
% Cell Death [1]: 27
% Cell Death [2]: 29
% Cell Death [3]: 39
% Cell Death [4]: 14
% Cell Death [5]: -8
% Cell Death [6]: 39

OC1=C2C(=Nc3ccccc3SC2c2ccc(Br)cc2)c2ccccc21 (centres undefined)
% Cell Death [1]: 30
% Cell Death [2]: 0
% Cell Death [3]: 11
% Cell Death [4]: 7
% Cell Death [5]: -10
% Cell Death [6]: 31

Fc1ccc2[nH]c3c(NCCCN4CCOCC4)ncnc3c2c1
% Cell Death [1]: 38
% Cell Death [2]: 49
% Cell Death [3]: -1
% Cell Death [4]: 7
% Cell Death [5]: 34
% Cell Death [6]: 36

COc1ccc(C2N(C)c3ccccc3N2C)cc1
% Cell Death [1]: 3
% Cell Death [2]: 30
% Cell Death [3]: -7
% Cell Death [4]: -14
% Cell Death [5]: 16
% Cell Death [6]: -15

Cc1ccc(Nc2nc(N)c3ccccc3n2)cc1Cl
% Cell Death [1]: -2
% Cell Death [2]: -31
% Cell Death [3]: -34
% Cell Death [4]: -9
% Cell Death [5]: -17
% Cell Death [6]: 36

COc1ccc(C2c3ccc4ccccc4c3Oc3ncn(CCCn4ccnc4)c(=N)c32)cc1OC (centres undefined)
% Cell Death [1]: -6
% Cell Death [2]: -30
% Cell Death [3]: 39
% Cell Death [4]: -25
% Cell Death [5]: -22
% Cell Death [6]: 38

O=C1c2ccccc2C2=Nc3ccccc3SC(c3cccc(F)c3)C12 (centres undefined)
% Cell Death [1]: 7
% Cell Death [2]: 4
% Cell Death [3]: 11
% Cell Death [4]: 28
% Cell Death [5]: -3
% Cell Death [6]: 20

O=C(CCl)NCCOc1ccc(Cl)cc1Cl
% Cell Death [1]: 12
% Cell Death [2]: 6
% Cell Death [3]: 15
% Cell Death [4]: -8
% Cell Death [5]: -19
% Cell Death [6]: 28

CCOc1ccc(-c2nc(NC(=O)c3cccc(S(C)(=O)=O)c3)sc2C)cc1
% Cell Death [1]: 2
% Cell Death [2]: 29
% Cell Death [3]: 5
% Cell Death [4]: -38
% Cell Death [5]: 0
% Cell Death [6]: -6

CCOc1cccc(C(=O)Nc2ccc(-c3nc4ccccc4[nH]3)cc2)c1
% Cell Death [1]: 6
% Cell Death [2]: 65
% Cell Death [3]: -33
% Cell Death [4]: -23
% Cell Death [5]: 8
% Cell Death [6]: 46

COc1cc2c(cc1OC)C1=NNC(=O)C1=NC(C)(C)C2
% Cell Death [1]: 106
% Cell Death [2]: 98
% Cell Death [3]: 107
% Cell Death [4]: 95
% Cell Death [5]: 101
% Cell Death [6]: 100

COc1ccc(C2=C(c3ccc(OC)cc3)C3(c4ccccc4)C(=O)C2(c2ccccc2)C2C(=O)N(c4ccc(C)cc4)C(=O)C23)cc1 (centres undefined)
% Cell Death [1]: 41
% Cell Death [2]: -6
% Cell Death [3]: -42
% Cell Death [4]: 13
% Cell Death [5]: -10
% Cell Death [6]: 28

Oc1ccc(Br)cc1CN1CCN(Cc2ccc(Cl)cc2)CC1
% Cell Death [1]: 46
% Cell Death [2]: 44
% Cell Death [3]: 27
% Cell Death [4]: 29
% Cell Death [5]: 12
% Cell Death [6]: 69
